Usually IC50 stands for the concentration at which inhibition is half-maximal. One may read the Ki as the dissociation constant of the complex between target and ligand, obtained from inhibition or displacement.

Each structure is given as a SMILES string.

The values below come from ChEMBL document CHEMBL1909046, “DrugMatrix in vitro pharmacology data”.

One experiment addresses T1, Adenosine receptor A1 (Homo sapiens, UniProt P30542).
T1 sequence (P30542 whole entry): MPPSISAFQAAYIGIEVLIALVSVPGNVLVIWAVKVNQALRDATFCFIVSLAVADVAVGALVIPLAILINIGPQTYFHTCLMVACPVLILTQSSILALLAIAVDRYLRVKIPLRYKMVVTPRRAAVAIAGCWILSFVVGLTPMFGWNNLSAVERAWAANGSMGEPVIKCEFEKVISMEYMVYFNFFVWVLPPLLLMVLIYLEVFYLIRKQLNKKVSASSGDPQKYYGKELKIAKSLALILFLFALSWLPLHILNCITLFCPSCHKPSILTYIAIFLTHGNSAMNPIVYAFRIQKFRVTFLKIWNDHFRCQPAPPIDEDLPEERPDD
Type of experiment: cell membranes, CHO, Membrane. As to conditions: cho.

The target of the next experiment is D(1A) dopamine receptor (Homo sapiens, UniProt P21728). Put plainly: DRUGMATRIX: Dopamine D1 radioligand binding (ligand: [3H] SCH-23390). It counts as cell membranes, CHO, Membrane. As to conditions: Not Active = under 50% inhibition at 10 µM.
D(1A) dopamine receptor, sequence (P21728 whole entry): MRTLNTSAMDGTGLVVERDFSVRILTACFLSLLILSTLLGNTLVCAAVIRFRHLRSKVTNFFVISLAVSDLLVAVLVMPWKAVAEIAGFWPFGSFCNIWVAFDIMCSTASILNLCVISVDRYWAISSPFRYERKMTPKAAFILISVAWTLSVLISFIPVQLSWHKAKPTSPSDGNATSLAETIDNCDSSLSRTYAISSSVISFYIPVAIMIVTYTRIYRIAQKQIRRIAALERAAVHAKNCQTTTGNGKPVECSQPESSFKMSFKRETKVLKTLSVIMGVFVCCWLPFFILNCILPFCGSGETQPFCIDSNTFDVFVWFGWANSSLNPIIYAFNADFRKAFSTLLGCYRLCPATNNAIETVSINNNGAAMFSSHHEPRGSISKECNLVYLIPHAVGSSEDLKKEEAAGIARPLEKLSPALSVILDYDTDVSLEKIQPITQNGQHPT
Experiment [1] is described as follows: DRUGMATRIX: Imidazoline I2, Central radioligand binding (ligand: [3H] Idazoxan). Type of experiment: cell membranes, Rattus norvegicus, Wistar, Cerebral cortex, Membrane. To be noted: Not Active = under 50% inhibition at 10 µM.
Experiment [2] deals with 5-hydroxytryptamine receptor 6 (Homo sapiens, UniProt P50406). It counts as cell membranes, HeLa, Membrane.
5-hydroxytryptamine receptor 6, sequence (P50406 whole entry): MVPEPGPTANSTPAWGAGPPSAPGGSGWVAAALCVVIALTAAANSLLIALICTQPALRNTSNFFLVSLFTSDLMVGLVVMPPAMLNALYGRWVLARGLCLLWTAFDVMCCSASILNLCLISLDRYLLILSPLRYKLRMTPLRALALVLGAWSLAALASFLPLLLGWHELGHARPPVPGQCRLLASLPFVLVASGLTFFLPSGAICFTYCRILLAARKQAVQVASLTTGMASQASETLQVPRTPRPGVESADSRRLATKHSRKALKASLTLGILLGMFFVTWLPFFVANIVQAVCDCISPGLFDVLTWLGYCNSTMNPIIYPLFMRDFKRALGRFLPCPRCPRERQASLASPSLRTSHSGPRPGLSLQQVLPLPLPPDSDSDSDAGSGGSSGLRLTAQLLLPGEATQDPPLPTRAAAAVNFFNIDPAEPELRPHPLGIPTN
In experiment [3] the target is T2, Vasoactive intestinal polypeptide receptor 1 (Homo sapiens, UniProt P32241). Note: in other assays of this panel Not Active means under 50% inhibition at 10 µM.
T2 sequence (P32241 whole entry): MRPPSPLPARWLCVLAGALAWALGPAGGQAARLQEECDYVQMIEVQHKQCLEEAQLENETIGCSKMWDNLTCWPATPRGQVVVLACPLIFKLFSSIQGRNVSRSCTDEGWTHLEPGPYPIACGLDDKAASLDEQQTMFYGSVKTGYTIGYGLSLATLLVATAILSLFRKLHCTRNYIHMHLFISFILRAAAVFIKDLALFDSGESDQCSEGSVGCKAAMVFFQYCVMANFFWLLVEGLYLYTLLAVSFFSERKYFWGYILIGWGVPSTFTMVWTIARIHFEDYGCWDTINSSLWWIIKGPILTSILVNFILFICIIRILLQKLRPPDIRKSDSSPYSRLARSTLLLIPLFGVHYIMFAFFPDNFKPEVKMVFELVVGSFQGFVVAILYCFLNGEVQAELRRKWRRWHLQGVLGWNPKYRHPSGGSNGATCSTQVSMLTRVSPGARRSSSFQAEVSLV
Type of experiment: cell membranes, Membrane. As to conditions: ht-29.

Experiment [4] deals with T3, Neuropeptide Y receptor type 2 (Homo sapiens, UniProt P49146).
T3 sequence (P49146 whole entry): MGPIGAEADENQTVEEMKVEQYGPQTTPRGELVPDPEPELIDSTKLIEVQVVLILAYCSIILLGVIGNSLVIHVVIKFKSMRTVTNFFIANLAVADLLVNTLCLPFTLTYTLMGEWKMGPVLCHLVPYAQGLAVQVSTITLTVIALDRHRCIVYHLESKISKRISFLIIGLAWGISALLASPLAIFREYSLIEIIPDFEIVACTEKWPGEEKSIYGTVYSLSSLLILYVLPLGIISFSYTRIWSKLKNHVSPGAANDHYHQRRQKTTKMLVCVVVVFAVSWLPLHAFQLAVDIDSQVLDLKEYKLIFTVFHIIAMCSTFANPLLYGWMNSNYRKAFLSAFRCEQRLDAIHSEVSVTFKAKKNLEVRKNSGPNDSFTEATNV
Type of experiment: cell membranes, Membrane. As to conditions: kan-ts.

As for `Nn1nnc2ccccc21`, the IC50 entry (against Adenosine receptor A1; at D(1A) dopamine receptor (cho); in experiment [1]; in experiment [2] (hela); in experiment [3]; in experiment [4]) was “Not Active” throughout. In addition, the Ki result in experiment [1] is recorded as “Not Active”.

For `CC[C@]1(O)CC[C@H]2[C@@H]3CCC4=CCCC[C@@H]4[C@H]3CC[C@@]21C`, the IC50 result (at Adenosine receptor A1; on D(1A) dopamine receptor (cho); in experiment [1]; in experiment [2] (hela); in experiment [3]; in experiment [4]) was “Not Active” throughout. In experiment [1], the Ki entry is given as “Not Active”.

With `N[C@@H](Cc1ccc(F)cc1)C(=O)O`, the IC50 result (on Adenosine receptor A1; on D(1A) dopamine receptor (cho); in experiment [1]; in experiment [2] (hela); in experiment [3]; in experiment [4]) was “Not Active” each time. For the same molecule, the Ki result in experiment [1] is “Not Active”.

For the molecule `CCOC(=O)[C@H](CCc1ccccc1)N[C@@H](C)C(=O)N1Cc2ccccc2C[C@H]1C(=O)O`, the IC50 result (against Adenosine receptor A1; on D(1A) dopamine receptor (cho); in experiment [1]; in experiment [2] (hela); in experiment [3]; in experiment [4]) was “Not Active” in each case. For the same molecule, the Ki result in experiment [1] is listed as “Not Active”.

Turning to `O=C(c1ccccc1Cl)N1CCC(Cc2ccccc2)CC1`, the concentration for half-maximal inhibition (IC50) result (against Adenosine receptor A1; at D(1A) dopamine receptor (cho); in experiment [1]; in experiment [2] (hela); in experiment [3]; in experiment [4]) was “Not Active” each time. Besides, the Ki entry in experiment [1] is given as “Not Active”.

For the molecule `CCOC(=O)[C@H](CCc1ccccc1)N[C@@H](C)C(=O)N1CCC[C@H]1C(=O)O`, the IC50 result (against Adenosine receptor A1; at D(1A) dopamine receptor (cho); in experiment [1]; in experiment [2] (hela); in experiment [3]; in experiment [4]) was “Not Active” in each case. The Ki entry in experiment [1] is recorded as “Not Active”.

Turning to `Clc1cc2c(cc1Cl)Oc1cc(Cl)c(Cl)cc1O2` [2,3,7,8-TETRACHLORODIBENZO-P-DIOXIN], the IC50 entry (at Adenosine receptor A1; on D(1A) dopamine receptor (cho); in experiment [1]; in experiment [2] (hela); in experiment [3]; in experiment [4]) was “Not Active” each time. In experiment [1], the Ki result is listed as “Not Active”.

For the molecule `C=C1/C(=C\C=C2/CCC[C@]3(C)[C@@H]([C@H](C)CCCC(C)C)CC[C@@H]23)C[C@@H](O)C[C@@H]1O` [ALFACALCIDOL], the IC50 entry (on Adenosine receptor A1; at D(1A) dopamine receptor (cho); in experiment [1]; in experiment [2] (hela); in experiment [3]; in experiment [4]) was “Not Active” throughout. Also, the Ki entry in experiment [1] is given as “Not Active”.

Turning to `CCCCCC[C@H]1C(=O)O[C@H](C)[C@H](NC(=O)c2cccc(NC=O)c2O)C(=O)O[C@@H](C)[C@@H]1OC(=O)CC(C)C` [ANTIMYCIN A], the IC50 result (at Adenosine receptor A1; on D(1A) dopamine receptor (cho); in experiment [1]; in experiment [2] (hela); in experiment [3]; in experiment [4]) was “Not Active” throughout. In experiment [1], the Ki entry is reported as “Not Active”.

`C[C@@H]1CC[C@H]2[C@@H](C)C(=O)O[C@@H]3O[C@@]4(C)CC[C@@H]1[C@]32OO4` [ARTEMISININ]: the IC50 result (against Adenosine receptor A1; on D(1A) dopamine receptor (cho); in experiment [1]; in experiment [2] (hela); in experiment [3]; in experiment [4]) was “Not Active” throughout. Also, in experiment [1], the inhibition constant (Ki) entry is listed as “Not Active”.

For the molecule `CO[C@H]1[C@@H](O)[C@H](N)[C@@H](O[C@H]2O[C@H]([C@H](C)N)CC[C@H]2N)[C@H](O)[C@@H]1N(C)C(=O)CN` [ASTROMICIN], the IC50 result (on Adenosine receptor A1; at D(1A) dopamine receptor (cho); in experiment [1]; in experiment [2] (hela); in experiment [3]; in experiment [4]) was “Not Active” in each case. Besides, the Ki entry in experiment [1] is reported as “Not Active”.

`[N-]=[N+]=CC(=O)OC[C@H](N)C(=O)O` [AZASERINE]: the IC50 entry (against Adenosine receptor A1; at D(1A) dopamine receptor (cho); in experiment [1]; in experiment [2] (hela); in experiment [3]; in experiment [4]) was “Not Active” each time. In experiment [1], the Ki entry is listed as “Not Active”.

With `CC[C@H]1OC(=O)[C@H](C)[C@@H](O[C@H]2C[C@@](C)(OC)[C@@H](O)[C@H](C)O2)[C@H](C)[C@@H](O[C@@H]2O[C@H](C)C[C@H](N(C)C)[C@H]2O)[C@](C)(O)C[C@@H](C)CN(C)[C@H](C)[C@@H](O)[C@]1(C)O` [AZITHROMYCIN], the 50% inhibitory concentration (IC50) result (at Adenosine receptor A1; at D(1A) dopamine receptor (cho); in experiment [1]; in experiment [2] (hela); in experiment [3]; in experiment [4]) was “Not Active” in each case. Also, the Ki result in experiment [1] is on record as “Not Active”.

Turning to `CC(C)(C)c1ccc(S(=O)(=O)/C=C/C#N)cc1` [BAY-11-7085], the IC50 entry (against Adenosine receptor A1; in experiment [1]; in experiment [2] (hela); in experiment [3]; in experiment [4]) was “Not Active” each time. In experiment [1], the Ki entry is “Not Active”.

For the molecule `CCc1oc2ccccc2c1C(=O)c1cc(Br)c(O)c(Br)c1` [BENZBROMARONE], the IC50 entry (on Adenosine receptor A1; at D(1A) dopamine receptor (cho); in experiment [1]; in experiment [2] (hela); in experiment [3]; in experiment [4]) was “Not Active” in each case. Also, the Ki result in experiment [1] is “Not Active”.

On to `O=c1cc(-c2ccccc2)oc2ccc3ccccc3c12` [BETA-NAPHTHOFLAVONE], for which the IC50 entry (at Adenosine receptor A1; at D(1A) dopamine receptor (cho); in experiment [1]; in experiment [2] (hela); in experiment [3]; in experiment [4]) was “Not Active” in each case. The inhibitory constant (Ki) entry in experiment [1] was “Not Active”.

For the molecule `CC(C)C[C@H]1C(=O)N2CCC[C@H]2[C@]2(O)O[C@](NC(=O)[C@@H]3C=C4c5cccc6[nH]c(Br)c(c56)C[C@H]4N(C)C3)(C(C)C)C(=O)N12` [BROMOCRIPTINE], the IC50 entry is “Not Active” at Adenosine receptor A1; 2890 nM on D(1A) dopamine receptor (read-out: IC50); 53 nM in experiment [1] (read-out: IC50); 22 nM in experiment [2] (read-out: IC50); “Not Active” in experiment [3]; “Not Active” in experiment [4]. Further, the Ki was found to be 1440 nM on D(1A) dopamine receptor (read-out: Ki), 35 nM in experiment [1] (read-out: Ki) and 10 nM in experiment [2] (read-out: Ki).

Turning to `CS(=O)(=O)OCCCCOS(C)(=O)=O` [BUSULFAN], the IC50 entry (on Adenosine receptor A1; at D(1A) dopamine receptor (cho); in experiment [1]; in experiment [2] (hela); in experiment [3]; in experiment [4]) was “Not Active” each time. For the same molecule, in experiment [1], the Ki entry is listed as “Not Active”.

For the molecule `O=C(/C=C/c1ccc(O)c(O)c1)OCCc1ccccc1` [CAFFEIC ACID PHENETHYL ESTER], the IC50 entry (against Adenosine receptor A1; on D(1A) dopamine receptor (cho); in experiment [1]; in experiment [2] (hela); in experiment [3]; in experiment [4]) was “Not Active” in each case. In experiment [1], the Ki result is “Not Active”.

Regarding `COc1cc(CNC(=O)CCCC/C=C/C(C)C)ccc1O` [CAPSAICIN], the IC50 result (against Adenosine receptor A1; at D(1A) dopamine receptor (cho); in experiment [1]; in experiment [2] (hela); in experiment [3]; in experiment [4]) was “Not Active” in each case. Moreover, in experiment [1], the Ki entry is “Not Active”.

On to `C#C[C@]1(O)CC[C@H]2[C@@H]3CCC4=Cc5oncc5C[C@]4(C)[C@H]3CC[C@@]21C` [DANAZOL], for which the IC50 result (at Adenosine receptor A1; in experiment [1]; in experiment [2] (hela); in experiment [3]; in experiment [4]) was “Not Active” in each case. Moreover, the Ki entry in experiment [1] is recorded as “Not Active”.
